Molecules are shown by their SMILES.

We go through one compound from patent US6417393B1, “Phenyl derivatives containing an acidic group, their preparation and their use as chloride channel blockers” (Neurosearch A/S, priority 1996, dated 2002).

The subject of data set [1] is erythrocyte chloride channels. The data set is described as follows: Cl- conductance (GCl) from concomitant measurements of conductive Cl- netfluxes and membrane potentials in suspensions of normal erythrocytes. Particulars: suspension of normal erythrocytes; read-out: IC50-value for block of GCl. Type of data set: cell-based, Human. From the text: (§1) The compounds of the present invention are potent blockers of chloride channels in normal as well as sickle cell erythrocytes.
(§2) All dose-response experiments were therefore performed by concomitant measurements of conductive netfluxes of Cl^− (JCl) and membrane potentials (Vm) in suspensions of erythrocytes (Bennekou, P. and Christophersen, P. (1986), Flux ratio of Valinomycin—Mediated K^+ Fluxes across the Human Red Cell Membrane in the presence of the Protronophore CCCP. J. Membrane Biol. 93, 221-227. ). The membrane Cl^−-conductances were calculated by the following equation (Hodgkin, A. L. and Huxley, A. F. (1952) The components of membrane conductance in the giant axon of loligo. J. Physiol. Lond. 116, 449-472): [formula]
(§3) where F is the Faraday constant and ECl is the Nernst potential for the Cl-ion.

The test system of data set [2] is chloride channels of sickle cell erythrocytes. The data set is described as follows: Cl- conductance (GCl) in oxygenated and deoxygenated homozygoteous sickle cell erythrocytes. It counts as cell-based, Human. Particulars: oxygenated as well as deoxygenated homozygoteous sickle cell erythrocytes; compared with normal erythrocytes.
Description: as §1, §2, §3

Another data set has as its system erythrocytes. The data set is described as follows: Valinomycin induced cell volume loss (relative volume of packed cells). Type of data set: cell-based. Particulars: valinomycin for 5 min. As for the experimental part:
Inducing a massive water and salt loss (KCI) by addition the K^+-ionophore valinomycin to the suspension for 5 min reduced the cell volume by 26%.

A further data set has as its system sickle erythrocytes. The data set is described as follows: K+ flux from sickle erythrocytes, basal and deoxygenation induced (extracellular K+-concentration vs time). Type of data set: cell-based. As to conditions: 10 μM; oxygenated sickle erythrocytes. From the text:
Deoxygenation induced permeability increases of sickle cells were estimated by measuring the extracellular K^+-concentration vs time. […] The K^+ flux from oxygenated sickle erythrocytes was 2-3 times higher than from normal erythrocytes and these fluxes was accelerated 4-8 times upon deoxygenation.

Another data set deals with mice. The data set is described as follows: Toxicity to mice. Type of data set: in vivo. As to conditions: up to 150 mg/kg i.p. and i.v. As for the experimental part: N-(3-Trifluoromethylphenyl)-N′-(2-carboxyphenyl) urea was non-toxic to mice at concentrations up to 150 mg/kg i.p. and i.v.

In the case of `O=C(Nc1cccc(C(F)(F)F)c1)Nc1ccccc1C(=O)O` [3′-Trifluoromethylphenyl-2-carboxyphenyl Urea], the IC50 in data set [1] stood at 600 nM; with erythrocytes (Erythrocyte, 5 min, read-out: IC50-value for reduction of valinomycin induced volume loss) it was 1200 nM. In data set [2], the “block of GCl from sickle cell erythrocytes” value is recorded as “equipotently blocked”. Also, in the data set on erythrocytes (volume loss without compound 26%), the “cell volume loss remaining in presence of compound” value was determined as 7%. In addition, the “basal K+-flux from sickle erythrocytes” value with sickle erythrocytes was “normalised”. Besides, the toxicity to mice entry with mice is recorded as “non-toxic”.

The term IC50 denotes the concentration needed to halve the response being measured.
